In publication PMC11007962, “First-in-human study of GFH018, a small molecule inhibitor of transforming growth factor-β receptor I inhibitor, in patients with advanced solid tumors” (BMC Cancer, 2024):
Like-named read-outs stand apart in the source and are kept apart here.

Test system: patients with advanced solid tumors
[1] = 30 mg BID 14d-on/14d-off (N = 7)
[2] = 40 mg BID 14d-on/14d-off (N = 4)
[3] = 50 mg BID 14d-on/14d-off (N = 4)
[4] = 65 mg BID 14d-on/14d-off (N = 6)

Protocol: The study consisted of a dose-escalation part followed by an expansion part. In the dose escalation part, a 3-day pharmacokinetic (PK) lead-in period was conducted for a single dose in the first treatment cycle. Patients received GFH018 once on cycle 1 day 1 (C1D1) and underwent serial PK testing over the first 3 days. On C1D4, patients were administered the corresponding dose of GFH018 BID 14 days on/14 days off. The first cycle was defined as 31 days, including 3-day PK leading-in period with GFH018 single dosing and then 14d-on/14d-off dosing schedule. The subsequent cycles were 28 days. The starting dose of GFH018 was 5 mg, with eight planned dose levels up to 85 mg (5, 10, 20, 30, 40, 50, 65, and 85 mg). A modified 3+3 design was used to determine the maximum tolerance dose (MTD) and RDE, guided by safety/tolerability and PK data. Dose-limiting toxicities (DLTs) were evaluated during the first cycle at each dose level. The safety of 85 mg BID, 7 d-on/7 d-off, was explored after confirming the safety of 14 d-on/14 d-off. The DLTs were defined as hematological toxicities, including G4 neutropenia lasting for more than 5 days, G3 febrile neutropenia, G4 anemia, G4 thrombocytopenia, or G3 thrombocytopenia accompanied by bleeding, and ≥ G3 nonhematological toxicity (except for diarrhea, nausea, vomiting, and rash recovering ≤ G2 after supportive treatment within 3 days). The DLTs for cardiac toxicities included ≥ G2 cardiac valve abnormalities, ≥ G2 left ventricular ejection fraction (LVEF) decrease, any cardiovascular impairment shown in imaging, and abnormal highly sensitive troponin (hs-Tn) increased to ≥ twice the baseline in two consecutive tests with an interval ≥ 3 days. In the expansion part, patients were orally administered GFH018 RDE twice daily to further evaluate the safety of RDE and other dose regimens. […] The treatment cycle lasted 28 days.
All enrolled patients were monitored regularly after GFH018 administration. Safety assessments included adverse events (AEs), serious AEs (SAEs), laboratory assessments, vital signs, physical examinations, electrocardiography and echocardiography. AEs were graded according to the NCI Common Terminology Criteria for Adverse Events (NCI-CTCAE) v5.0. All AEs were followed up until they were stable or had recovered to baseline. Adverse events of special interest (AESIs) were predefined as echocardiographic abnormalities such as aggravated stenosis or regurgitation of the heart valves, clinically significant decreases in LVEF, brain natriuretic peptide (BNP) or N-terminal pro-brain natriuretic peptide (NT-proBNP) increases, and hs-Tn increases judged by investigators.
For the safety and efficacy analyses, data from patients who received GFH018 at the same dose in the dose-escalation and expansion cohorts were pooled. The demographic and baseline characteristics were summarized using descriptive methods. Safety and efficacy data were summarized for all patients who received at least one dose of GFH018. The ORR and DCR were summarized by cohort and overall. When the sample size of the analyzed group was ten or more, the Kaplan–Meier method was used to estimate the median PFS and TTP. In this study, treatment-emergent AEs (TEAEs) were defined as AEs that occurred on or after the first dosing date of GFH018 and no later than 30 days after the last dose of GFH018. The incidence and severity of AEs were descriptively summarized according to dose level. The PK parameters of GFH018 were calculated using noncompartmental analysis methods. All plasma PK data were summarized by cohort and visit day or time using descriptive statistics.

Cc1cccc(-c2nn3c(c2-c2ccc4ncnn4c2/C=C/C(N)=O)CCC3)n1 [GFH018]
TEAE: Urine protein present [1]: 0 n (%) | TEAE: White blood cell count decreased [1]: 0 n (%) | TEAE: White blood cells urine positive [1]: 0 n (%) | TRAE: ALP increased [1]: 0 n (%) | TRAE: ALT increased [1]: 2 (28.6%) n (%) | TRAE: AST increased [1]: 2 (28.6%) n (%) | TRAE: Anemia [1]: 0 n (%) | TRAE: GGT increased [1]: 0 n (%) | TRAE: LDH increased [1]: 1 (14.3%) n (%) | TRAE: Lymphocyte count decreased [1]: 1 (14.3%) n (%) | TRAE: Protein urine present [1]: 0 n (%) | TRAE: Proteinuria [1]: 3 (42.9%) n (%) | Treatment-emergent Proteinuria (grouped PTs), G1 [1]: 3 (42.9) n (%) | Treatment-emergent Proteinuria (grouped PTs), G2 [1]: 1 (14.3) n (%) | Treatment-emergent Proteinuria (grouped PTs), G3 [1]: 0 n (%) | Treatment-emergent Proteinuria (grouped PTs: proteinuria and urine protein present), any grade [1]: 4 (57.1) n (%) | At least one TEAE [2]: 4 (100%) n (%) | At least one TRAE [2]: 4 (100%) n (%) | TEAE: ALP increased [2]: 1 (25.0%) n (%) | TEAE: ALT increased [2]: 0 n (%) | TEAE: AST increased [2]: 0 n (%) | TEAE: Abdominal distention [2]: 0 n (%) | TEAE: Abdominal pain [2]: 0 n (%) | TEAE: Anemia [2]: 1 (25.0%) n (%) | TEAE: Asthenia [2]: 1 (25.0%) n (%) | TEAE: Bilirubin conjugated increased [2]: 0 n (%) | TEAE: Blood albumin decreased [2]: 0 n (%) | TEAE: Blood bilirubin increased [2]: 0 n (%) | TEAE: C-reactive protein increased [2]: 0 n (%) | TEAE: Constipation [2]: 0 n (%) | TEAE: Decreased appetite [2]: 0 n (%) | TEAE: GGT increased [2]: 0 n (%) | TEAE: Hypoalbuminemia [2]: 0 n (%) | TEAE: LDH increased [2]: 1 (25.0%) n (%) | TEAE: Lymphocyte count decreased [2]: 0 n (%) | TEAE: Platelet count decreased [2]: 1 (25.0%) n (%) | TEAE: Proteinuria [2]: 0 n (%) | TEAE: Sinus tachycardia [2]: 1 (25.0%) n (%) | TEAE: Urine protein present [2]: 0 n (%) | TEAE: White blood cell count decreased [2]: 0 n (%) | TEAE: White blood cells urine positive [2]: 0 n (%) | TRAE: ALP increased [2]: 1 (25.0%) n (%) | TRAE: ALT increased [2]: 0 n (%) | TRAE: AST increased [2]: 0 n (%) | TRAE: Anemia [2]: 0 n (%) | TRAE: GGT increased [2]: 0 n (%) | TRAE: LDH increased [2]: 1 (25.0%) n (%) | TRAE: Lymphocyte count decreased [2]: 0 n (%) | TRAE: Protein urine present [2]: 0 n (%) | TRAE: Proteinuria [2]: 0 n (%) | Treatment-emergent Proteinuria (grouped PTs), G1 [2]: 0 n (%) | Treatment-emergent Proteinuria (grouped PTs), G2 [2]: 0 n (%) | Treatment-emergent Proteinuria (grouped PTs), G3 [2]: 0 n (%) | Treatment-emergent Proteinuria (grouped PTs: proteinuria and urine protein present), any grade [2]: 0 n (%) | At least one TEAE [3]: 4 (100%) n (%) | At least one TRAE [3]: 2 (50.0%) n (%) | TEAE: ALP increased [3]: 1 (25.0%) n (%) | TEAE: ALT increased [3]: 1 (25.0%) n (%) | TEAE: AST increased [3]: 1 (25.0%) n (%) | TEAE: Abdominal distention [3]: 1 (25.0%) n (%) | TEAE: Abdominal pain [3]: 0 n (%) | TEAE: Anemia [3]: 3 (75.0%) n (%) | TEAE: Asthenia [3]: 0 n (%) | TEAE: Bilirubin conjugated increased [3]: 0 n (%) | TEAE: Blood albumin decreased [3]: 0 n (%) | TEAE: Blood bilirubin increased [3]: 0 n (%) | TEAE: C-reactive protein increased [3]: 0 n (%) | TEAE: Constipation [3]: 0 n (%) | TEAE: Decreased appetite [3]: 1 (25.0%) n (%) | TEAE: GGT increased [3]: 1 (25.0%) n (%) | TEAE: Hypoalbuminemia [3]: 0 n (%) | TEAE: LDH increased [3]: 0 n (%) | TEAE: Lymphocyte count decreased [3]: 0 n (%) | TEAE: Platelet count decreased [3]: 0 n (%) | TEAE: Proteinuria [3]: 0 n (%) | TEAE: Sinus tachycardia [3]: 1 (25.0%) n (%) | TEAE: Urine protein present [3]: 1 (25.0%) n (%) | TEAE: White blood cell count decreased [3]: 0 n (%) | TEAE: White blood cells urine positive [3]: 0 n (%) | TRAE: ALP increased [3]: 1 (25.0%) n (%) | TRAE: ALT increased [3]: 1 (25.0%) n (%) | TRAE: AST increased [3]: 1 (25.0%) n (%) | TRAE: Anemia [3]: 0 n (%) | TRAE: GGT increased [3]: 1 (25.0%) n (%) | TRAE: LDH increased [3]: 0 n (%) | TRAE: Lymphocyte count decreased [3]: 0 n (%) | TRAE: Protein urine present [3]: 1 (25.0%) n (%) | TRAE: Proteinuria [3]: 0 n (%) | Treatment-emergent Proteinuria (grouped PTs), G1 [3]: 1 (25.0) n (%) | Treatment-emergent Proteinuria (grouped PTs), G2 [3]: 0 n (%) | Treatment-emergent Proteinuria (grouped PTs), G3 [3]: 0 n (%) | Treatment-emergent Proteinuria (grouped PTs: proteinuria and urine protein present), any grade [3]: 1 (25.0) n (%) | At least one TEAE [4]: 5 (83.3%) n (%) | At least one TRAE [4]: 5 (83.3%) n (%) | TEAE: ALP increased [4]: 0 n (%) | TEAE: ALT increased [4]: 0 n (%) | TEAE: AST increased [4]: 2 (33.3%) n (%) | TEAE: Abdominal distention [4]: 0 n (%) | TEAE: Abdominal pain [4]: 1 (16.7%) n (%) | TEAE: Anemia [4]: 3 (50.0%) n (%) | TEAE: Asthenia [4]: 0 n (%) | TEAE: Bilirubin conjugated increased [4]: 0 n (%) | TEAE: Blood albumin decreased [4]: 0 n (%) | TEAE: Blood bilirubin increased [4]: 1 (16.7%) n (%) | TEAE: C-reactive protein increased [4]: 0 n (%) | TEAE: Constipation [4]: 1 (16.7%) n (%) | TEAE: Decreased appetite [4]: 1 (16.7%) n (%) | TEAE: GGT increased [4]: 1 (16.7%) n (%) | TEAE: Hypoalbuminemia [4]: 0 n (%) | TEAE: LDH increased [4]: 0 n (%) | TEAE: Lymphocyte count decreased [4]: 0 n (%) | TEAE: Platelet count decreased [4]: 1 (16.7%) n (%) | TEAE: Proteinuria [4]: 1 (16.7%) n (%) | TEAE: Sinus tachycardia [4]: 2 (33.3%) n (%) | TEAE: Urine protein present [4]: 1 (16.7%) n (%) | TEAE: White blood cell count decreased [4]: 2 (33.3%) n (%) | TEAE: White blood cells urine positive [4]: 1 (16.7%) n (%) | TRAE: ALP increased [4]: 0 n (%) | TRAE: ALT increased [4]: 0 n (%) | TRAE: AST increased [4]: 2 (33.3%) n (%) | TRAE: Anemia [4]: 2 (33.3%) n (%) | TRAE: GGT increased [4]: 0 n (%) | TRAE: LDH increased [4]: 0 n (%) | TRAE: Lymphocyte count decreased [4]: 0 n (%) | TRAE: Protein urine present [4]: 0 n (%) | TRAE: Proteinuria [4]: 1 (16.7%) n (%) | Treatment-emergent Proteinuria (grouped PTs), G1 [4]: 1 (16.7) n (%) | Treatment-emergent Proteinuria (grouped PTs), G2 [4]: 1 (16.7) n (%) | Treatment-emergent Proteinuria (grouped PTs), G3 [4]: 0 n (%) | Treatment-emergent Proteinuria (grouped PTs: proteinuria and urine protein present), any grade [4]: 2 (33.3) n (%) | safety profile of 7 d-on/7 d-off versus 14 d-on/14 d-off regimen (85 mg BID): not significantly different | At least one TEAE (85 mg BID 7d-on/7d-off (N = 6)): 5 (83.3%) n (%) | At least one TEAE (Table S3) (85 mg BID 7d-on/7d-off (N = 6)): 5 (83.3%) n (%) | At least one TRAE (85 mg BID 7d-on/7d-off (N = 6)): 3 (50.0%) n (%) | TEAE: ALP increased (85 mg BID 7d-on/7d-off (N = 6)): 1 (16.7%) n (%) | TEAE: ALT increased (85 mg BID 7d-on/7d-off (N = 6)): 0 n (%)
